Results: patent publication US9688668B2, “Long chain base sphingosine kinase inhibitors” (UNIVERSITY OF VIRGINIA PATENT FOUNDATION, priority 2012, dated 2017)
Where two headings read alike, the source gives them in different places.

Experiments:
[1] = patients, 1-yr trial; cited from earlier work
[2] = molecular target: recombinant SphK2 (Mus musculus, UniProt Q9JIA7); assay: SphK2 scintillation proximity kinase assay; format: biochemical; conditions: Estimated Ki values at recombinant SphK2; read-out: SphK2 (estimated Ki range)
recombinant SphK2, sequence (Q9JIA7 whole entry, looked up): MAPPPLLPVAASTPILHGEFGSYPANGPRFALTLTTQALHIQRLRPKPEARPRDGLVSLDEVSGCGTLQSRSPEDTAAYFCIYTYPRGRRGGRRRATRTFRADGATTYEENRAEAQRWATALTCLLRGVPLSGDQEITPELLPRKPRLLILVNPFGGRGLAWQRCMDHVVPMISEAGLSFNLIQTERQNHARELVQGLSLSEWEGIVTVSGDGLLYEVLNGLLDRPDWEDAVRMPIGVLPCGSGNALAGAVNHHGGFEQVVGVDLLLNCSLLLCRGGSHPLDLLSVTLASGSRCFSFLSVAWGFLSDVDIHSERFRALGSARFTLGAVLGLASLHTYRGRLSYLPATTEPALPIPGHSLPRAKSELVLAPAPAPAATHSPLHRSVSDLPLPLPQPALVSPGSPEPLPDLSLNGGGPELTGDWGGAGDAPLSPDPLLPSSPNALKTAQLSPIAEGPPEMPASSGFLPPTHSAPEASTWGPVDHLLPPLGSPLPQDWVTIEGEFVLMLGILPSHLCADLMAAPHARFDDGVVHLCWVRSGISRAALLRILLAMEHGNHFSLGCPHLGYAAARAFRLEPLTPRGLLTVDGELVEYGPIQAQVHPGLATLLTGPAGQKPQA

[3] = molecular target: recombinant SphK1 (Homo sapiens (Human), UniProt Q9NYA1); assay: SphK1 scintillation proximity kinase assay
recombinant SphK1, sequence (Q9NYA1 whole entry): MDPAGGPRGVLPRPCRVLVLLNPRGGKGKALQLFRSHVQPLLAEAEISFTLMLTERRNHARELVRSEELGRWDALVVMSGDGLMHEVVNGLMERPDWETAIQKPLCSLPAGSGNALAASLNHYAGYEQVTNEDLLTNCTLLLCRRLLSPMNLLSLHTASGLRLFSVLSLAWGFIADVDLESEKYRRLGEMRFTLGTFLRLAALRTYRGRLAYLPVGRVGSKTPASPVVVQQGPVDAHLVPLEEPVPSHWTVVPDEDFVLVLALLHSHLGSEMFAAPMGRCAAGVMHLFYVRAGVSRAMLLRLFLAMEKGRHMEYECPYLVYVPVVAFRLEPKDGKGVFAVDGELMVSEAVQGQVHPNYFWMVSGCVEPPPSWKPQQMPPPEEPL

[4] = molecular target: sphingosine kinases; conditions: background statement; read-out: typical KI value; cited from earlier work
[5] = read-out: SphK1 (estimated Ki range), Estimated Ki values at recombinant SphK1

## CCCCCCCCc1ccc(CCC(N)(CO)CO)cc1 [fingolimod, 2-amino-2-[2-(4-octylphenyl)ethyl]propane 1,3-diol]
[1]
  hypertension (blood pressure rise): 2-3 mmHg

## (S)-2-((3-(3-nonylphenyl)-1,2,4- oxadiazol-5-yl)methyl)pyrrolidine-1- carboximidamide [Compound 75]
[2]
  Ki: > 10 µM
[3]; [5]
  Ki: > 10 µM

## CCCCCCCCCCCCCCC[C@H](O)[C@@H](N)CO (racemic) [DL-threo-dihydrosphingosine]
[4]
  Ki: < 10 µM

## CCCCCCCCCCc1ccc(/C=C/CC(=N)N)cc1 [Compound 6, (E)-4-(4-decylphenyl)but-3-enimidamide]
[3]; [5]
  Ki: > 10 µM

## CCCCCCc1ccc(-c2noc([C@@H]3CCN3C(=N)N)n2)cc1 [Compound 61, (S)-2-(3-(4-hexylphenyl)-1,2,4-oxadiazol-5-yl)azetidine-1-carboximidamide]
[3]; [5]
  Ki: > 10 µM

## CCCCCCCCCCCCCCCCC(=N)N [Compound 3, heptadecanimidamide]
[3]
  Ki: 1 to 10 µM

## CCCCCCCCc1cccc(-c2noc([C@@H]3CCCN3C(=N)N)n2)c1 [Compound 58, (S)-2-(3-(3-octylphenyl)-1,2,4-oxadiazol-5-yl)pyrrolidine-1-carboximidamide]
[3]; [5]
  Ki: > 10 µM

## CCCCCCCCCCCCc1ccc(-c2noc(C3(C(=N)N)CC3)n2)cc1 [Compound 11, 1-(3-(4-dodecylphenyl)-1,2,4-oxadiazol-5-yl) cyclopropanecarboximidamide]
[3]
  Ki: 1 to 10 µM

## CCCCCCCCCCCc1cc(-c2noc(C3(C(=N)N)CC3)n2)ccc1OC [Compound 14, 1-(3-(4-methoxy-3-undecylphenyl)-1,2,4-oxadiazol-5-yl)cyclopropanecarboximidamide]
[3]
  Ki: < 1 µM

## CCCCCCCCc1ccc(CC[C@@H](N)C(=N)N)cc1 [Compound 8, (R)-2-amino-4-(4-octylphenyl)butanimidamide]
[3]; [5]
  Ki: > 10 µM

## CCCCCCCCCCCc1ccc(-c2noc(C3(NC(=N)N)CC3)n2)cc1 [Compound 43, 1-(1-(3-(4-undecylphenyl)-1,2,4-oxadiazol-5-yl)cyclopropyl)guanidine]
[3]; [5]
  Ki: > 10 µM

## CCCCCCCCCCCCCCCCc1noc([C@@H]2CCCN2C(=N)N)n1 [Compound 41, (S)-2-(3-hexadecyl-1,2,4-oxadiazol-5-yl)pyrrolidine-1-carboximidamide]
[3]; [5]
  Ki: > 10 µM

## CCCCCCCCc1ccc(-c2noc([C@@H](NC(=N)N)C(C)C)n2)cc1 [Compound 48, (S)-1-(2-methyl-1-(3-(4-octylphenyl)-1,2,4-oxadiazol-5-yl)propyl)guanidine]
[3]
  Ki: 1 to 10 µM

## CCCCCCCCc1ccc(-c2noc([C@@H]3CCN(C(=N)N)C3)n2)cc1 [Compound 59, (R)-3-(3-(4-octylphenyl)-1,2,4-oxadiazol-5-yl)pyrrolidine-1-carboximidamide]
[3]; [5]
  Ki: > 10 µM
